Assay results published in patent US20240408170A1, “COMPOSITION FOR DECOMPOSITION OF TRYPSIN OR TMPRSS2” (Riken, priority 2021, published 2024).

Assays:
[1] = molecular target: T1, recombinant mouse PRSS2 (Mus musculus, UniProt P07146); test: Trypsin decomposition in vitro by bacteria (western blot); assay type: biochemical
T1 construct: purchased Sino Biological, Inc. 50383-M08H
T1 sequence (P07146 24-246): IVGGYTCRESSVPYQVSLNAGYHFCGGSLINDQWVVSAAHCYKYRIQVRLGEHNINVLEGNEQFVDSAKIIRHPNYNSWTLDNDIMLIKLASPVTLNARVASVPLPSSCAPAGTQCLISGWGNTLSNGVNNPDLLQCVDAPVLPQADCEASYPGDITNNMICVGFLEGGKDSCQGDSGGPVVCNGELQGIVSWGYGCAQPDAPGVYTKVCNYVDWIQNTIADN
Description: (§1) Mouse faecal samples were suspended and diluted 50-fold with phosphate buffered saline (PBS) to which a protease inhibitor cocktail (Roche) was added. Subsequently, the suspended sample was centrifuged at 15,000×g for 10 minutes at 4° C., and the supernatant was subjected to western blot. Mouse pancreatic tissue was rapidly frozen in liquid nitrogen. Proteins were extracted by TRIzol Reagent (Thermo Fisher Scientific K.K.), and the final protein concentration was adjusted to 4 μg/μL. For SDS-PAGE and blotting, Novex (registered trademark) NuPAGE (registered trademark) SDS-PAGE Gel system (Thermo Fisher Scientific K.K.) and iBlot™ 2 Dry Blotting System (Thermo Fisher Scientific K.K.) were used according to the manufacturer's instructions.
(§2) The bacteria cultured overnight were incubated with recombinant mouse trypsin (final concentration: 1 μg/mL) for 1 hour or with human trypsin (final concentration: 20 μg/mL) for 4 hours. Recombinant trypsin isoforms used were as follows: recombinant mouse PRSS2 (50383-M08H, Sino Biological, Inc.), recombinant human PRSS1 (LS-G135640), recombinant human PRSS2 (LS-G20167), and recombinant human PRSS3 (His-tag) (NBP2-52220).
In some experiments, recombinant mouse PRSS2 was first treated with one of the following trypsin inhibitors for 30 minutes before incubation with a P. clara culture solution. AEBSF (Sigma-Aldrich, final concentration: 2 mM), Leupeptin (Sigma-Aldrich, final concentration: 100 μM), and TLCK (Abcam plc., final concentration: 100 μM).
In some experiments, P. clara was cultured overnight in the presence of Tunicamycin (Sigma-Aldrich, final concentration: 10 μg/mL), 2-Fluoro-L-fucose (Cayman Chemical Company, final concentration: 250 μM), or the corresponding DMSO control, before incubation with recombinant mouse PRSS2.
In the experiment of evaluating the effect of Ca^2+, P. clara was cultured in a low Ca^2+ mGAM medium supplemented with or without 1 mM of Ca^2+, before incubation with recombinant mouse PRSS2. In the experiment in which the supernatant of P. clara was used, P. clara cultured overnight was filtered through a sterilization filter unit formed using a PVDF film having a pore size of 0.22 μm.

[2] = system: IgA heavy chain; test: Ex vivo incubation of mouse faeces at 37° C. for 48 hours, western blot; conditions: GF faeces mixed with 2-mix+WT faeces, trypsin inhibitor added
Description: Mouse faecal samples were suspended and diluted 50-fold with phosphate buffered saline (PBS) to which a protease inhibitor cocktail (Roche) was added. Subsequently, the suspended sample was centrifuged at 15,000×g for 10 minutes at 4° C., and the supernatant was subjected to western blot. Mouse pancreatic tissue was rapidly frozen in liquid nitrogen. Proteins were extracted by TRIzol Reagent (Thermo Fisher Scientific K.K.), and the final protein concentration was adjusted to 4 μg/μL. For SDS-PAGE and blotting, Novex (registered trademark) NuPAGE (registered trademark) SDS-PAGE Gel system (Thermo Fisher Scientific K.K.) and iBlotTM 2 Dry Blotting System (Thermo Fisher Scientific K.K.) were used according to the manufacturer's instructions. The antibodies used are as follows. A rabbit anti-mouse PRSS2 antibody (Cosmo Bio Co., Ltd.), a rabbit anti-mouse HSP90 antibody (#4877, Cell Signaling Technology, Inc.), a rabbit anti-human PRSS2 antibody (LS-B15726, LSBio), a rabbit anti-human PRSS1 antibody (LS-331381, LSBio), a rabbit anti-mouse TMPRSS2 antibody (LS-C373022, LSBio, against the sequence of the protease domain), a rabbit anti-6-His antibody ([…]-[…], Bethyl Laboratories, Inc.), a goat anti-mouse IgA a chain antibody (HRP) (ab97235, Abcam plc.), a rat anti-mouse κ chain antibody (HRP) (ab99632, Abcam plc.), a rabbit anti-mouse CELA3b antibody (OACD03205, Aviva Systems Biology Corporation), an anti-rabbit IgG antibody (HRP) (#7074, Cell Signaling Technology, Inc.), and a rabbit anti-mouse Reg3 antibody (51153-[…], Sino Biological, Inc.).

[3] = molecular target: T2, recombinant human PRSS1 (Homo sapiens, UniProt P07477); test: Human trypsin decomposition in vitro by P. clara (western blot); assay type: biochemical
T2 construct: purchased LS-G135640
Description: as §1, §2

[4] = molecular target: T3, recombinant human PRSS2 (Homo sapiens, UniProt P07478); test: as above; assay type: biochemical
T3 construct: purchased LS-G20167
T3 sequence (P07478 24-247): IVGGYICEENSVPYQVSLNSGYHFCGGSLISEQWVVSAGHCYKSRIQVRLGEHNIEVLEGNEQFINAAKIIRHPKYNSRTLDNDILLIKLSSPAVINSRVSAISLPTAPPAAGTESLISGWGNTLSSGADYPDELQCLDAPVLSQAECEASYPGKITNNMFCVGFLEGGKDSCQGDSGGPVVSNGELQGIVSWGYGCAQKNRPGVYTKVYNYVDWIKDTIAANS
Description: as §1, §2

[5] = molecular target: T1, recombinant mouse PRSS2; test: Binding of Alexa Fluor 488-labeled rmPRSS2 to the surface of bacteria (confocal microscope)
Description: Recombinant mouse PRSS2 was labeled with Alexa Fluor™ 488 using an Alexa Fluor™ 488 Antibody Labeling Kit (Δ20181, Thermo Fisher Scientific K.K.), and was pretreated with an AEBSF inhibitor (150 μg/mL rmPRSS2 with 20 mM AEBSF).
Mouse PRSS2 labeled with Alexa Fluor™ 488 was incubated in an anaerobic chamber for 20 minutes with bacteria cultured at a final concentration of 5 μg/mL. The mixture was centrifuged, washed once with PBS, and then resuspended in PBS. A Leica TCS SP8 confocal microscope was used for capturing a confocal image.

[6] = system: FITC-casein substrate; test: Protease activity assay (cleavage of FITC-labeled casein); assay type: biochemical
Description: The protease activity of the P. clara culture solution, the P. clara culture solution supernatant, the recombinant 00502 protein, and the recombinant 005009 protein were measured using Pierce™ Fluorescent Protease Assay Kit (#23266, Thermo Fisher Scientific K.K.) according to the manufacturer's protocol.
Using PerkinElmer 2030 Multilabel Reader equipped with an excitation filter and a fluorescence filter of fluorescein (485/538 nm), an increase in total fluorescence due to digestion of the FITC-casein substrate to smaller fluorescein-labeled fragments was detected. The protease activity was measured as a change in relative fluorescence units (RFUs).

[7] = molecular target: T4, trypsin (Mus musculus, UniProt P07146); test: Substrate specificity: ex vivo incubation of GF mouse cecal contents with P. clara, peptidome analysis by LC-MS; assay type: biochemical; conditions: 7614 peptides derived from 276 proteins, cecal contents of GF mice
T4 construct: the anionic trypsin protease was abundantly present in the cecal contents and the faeces; from tissue; host or cells: faeces and cecal contents of germ-free / gnotobiotic mice
T4 sequence (P07146 24-246): T1 sequence (P07146 24-246)
Description: An acetonitrile (ACN) containing 0.1% trifluoroacetic acid (TFA) was added to the cecal contents and dried with a centrifugal evaporator. Acetone was added to the dried sample, and a low-molecular-weight compound that was soluble in lipids was extracted with a water bath type sonicator. Thereafter, centrifugation was performed at 15,000×g for 15 minutes at 4° C.
After removing the supernatant, 70% ACN-HCl was added to the precipitate, and the peptides were redissolved in a water bath type sonicator. Thereafter, centrifugation was performed at 15,000×g for 15 minutes at 4° C. Subsequently, the supernatant was transferred to a new tube and dried with a centrifugal evaporator. Subsequently, the dried sample was redissolved in 100 mM Tris-HCl containing a protease inhibitor, and then treated with 10 mM dithiothreitol at 50° C. for 30 minutes. Thereafter, alkylation was carried out with 30 mM iodoacetamide for 30 minutes at room temperature in a dark place. Thereafter, acidification was carried out with 0.5% trifluoroacetic acid (final concentration). The acidified sample was desalted with MonoSpin C18 (GL Sciences Inc.). […]
The peptides eluted from the column were analyzed by DDA-MS using Q Exactive HF-X (Thermo Fisher Scientific K.K.). […]

| Molecule | trypsin-decomposing ability of P. clara (1C4) after pretreating rmPRSS2 with protease inhibitor ([1]; rmPRSS2 pretreated 30 minutes with inhibitor) | decomposition of IgA heavy chain in mixed faeces [2] | reaction rate of trypsin decomposition by P. clara [1] | dependence of P. clara-mediated trypsin decomposition on divalent cations ([1]; Ca2+) | decomposition of rmPRSS2 (western blot) ([1]; bacteria or culture supernatant incubated with recombinant mouse trypsin) | decomposition of human trypsin PRSS1 (western blot) [3] | decomposition of human trypsin PRSS2 (western blot) [4] | binding of rmPRSS2 to the surface of bacteria [5] | protease activity (change in relative fluorescence units) [6] | substrate specificity: proteins with increase in peptide concentration over time [7] |
| --- | --- | --- | --- | --- | --- | --- | --- | --- | --- | --- |
| Cc1ccc(S(=O)(=O)N[C@@H](CCCCN)C(=O)CCl)cc1 [TLCK, reference compound] | lost | inhibited the decomposition of the IgA heavy chain |  |  |  |  |  |  |  |  |
| Paraprevotella clara [P. clara (strain ID: 1C4)] |  |  | gradually occurs stoichiometrically | occurred only in the presence of a sufficient amount of divalent cations | reduced trypsin | can promote the reduction | can promote the reduction | accumulate on the surface | no proteolytic activity was detected | trypsin was only one protein that exhibited a pattern of a clear increase in peptide concentration over time |
